Laboratory results published in US12071488B2, “Method of sensitizing cancer cells to anti-cancer treatment” (TWO TO BIOTECH LTD., priority 2017, dated 2024).

How the values were obtained:
[1] = system: human TNBC tumors (MDA-MB-231); assay: Relative tumor volume in nude mice inoculated with TNBC cells; assay type: in vivo; settings: MDA-MB-231 tumors; APC1 15 mg/kg, doxorubicin 3 mg/kg once a week; 5 weeks; control increased linearly
Source text: To this end, mice were inoculated with TNBC cells as detailed above, briefly 32 nude mice were inoculated subcutaneously with TNBC cells (MDA-MB-231, 8×10^6 cells per mouse).

[2] = system: human ovarian cancer cells (OV90); assay: Relative tumor volume in nude mice inoculated with human ovarian cancer cells; assay type: in vivo; settings: OV90 tumors; APC1 15 mg/kg, doxorubicin 3 mg/kg once a week; 5 weeks; control increased linearly
Method: During the treatment period, each mouse was weighted, and the tumor size was measured by Digital caliper.
When the tumors exceeded a volume of 40 mm^3 or 50 mm^3 (for OV90 and Panc1, respectively), the mice were randomly divided into four groups of 8 mice each, as follows. A control group was treated with saline only, the APC1-treated group was treated three times a week with doses of APC1 at 15 mg/kg each, the doxorubicin and APC treated group was treated twice a week with doses of APC1 (at 15 mg/kg each) and once a week with doxorubicin (at 3 mg/kg) and the doxorubicin-treated group was treated with doxorubicin only, once a week at a dose of 3 mg/kg. These dosing protocols were repeated throughout the experiment, namely for 5 weeks.

tumor = settings: WO 2009/083968; cited from earlier work
[3] = system: leukemia and prostate cancer cells; settings: WO 2009/083968; cited from earlier work

Molecule | relative tumor volume [1] | relative tumor volume [2] | tumor growth in mice (tumor) | viability of leukemia and prostate cancer cells [3]
COc1cccc2c1C(=O)c1c(O)c3c(c(O)c1C2=O)C[C@@](O)(C(=O)CO)C[C@@H]3O[C@H]1C[C@H](N)[C@H](O)[C@H](C)O1 [doxorubicin, (7S,9S)-7-[(2R,4S,5S,6S)-4-amino-5-hydroxy-6-methyloxan-2-yl]oxy-6,9,11-trihydroxy-9-(2-hydroxyacetyl)-4-methoxy-8,10-dihydro-7H-tetracene-5,12-dione, reference compound] | moderate increase | modest increases |  | 
MPGHSRLLSILVSGLCVVGSSIGVLRRREQAERGSRRCAIAGEERAMLSPSPLPE TPFSPEKGAAFSPIYPRRK (protein, listed as Homo sapiens, full length polypeptide of 74 amino acid residues described in WO 2009/083968) MPGHSRLLSILVSGLCVVGSSIGVLRRREQAERGSRRCAIAGEERAMLSPSPLPETPFSPEKGAAFSPIYPRRK |  |  | prevention of tumor growth | decrease in the viability
